Assay results published in patent US5409956A, “Indan derivative and thromboxane antagonist containing the same” (Zeria Pharmaceutical Co., Ltd., priority 1991, dated 1995).

Legend:
[1] = test system: Human platelet aggregation; experiment: Human platelet aggregation inhibitory action (in vitro), U46619-induced; assay type: cell-based; details: human PRP, approximately 4×10^5 cells/ml, 1 μM U46619, 37° C., Born's method, read-out: IC50 (concentration required for inhibiting the platelet aggregation induced by 1 μM of U46619 by 50%)
Procedure: Human platelet aggregation inhibitory action (in vitro):
Blood samples were collected from healthy humans. 9 parts by volume of the collected blood was mixed with 1 part by volume of an aqueous 3.8%(W/v) trisodium citrate, and the mixture was subjected to centrifugal separation for collecting the supernatant-to prepare a platelet rich plasma (PRP). A further centrifugation was-performed to separate a platelet poor plasma (PPP). PRP was diluted with PPP to adjust the number of platelets to approximately 4×10^5 cells/ml. Subsequently, 200 micro liters of PRP were added with the […] and 25 micro liters of an equimolar aqueous sodium hydrogencarbonate solution, and stirred for 2 minutes at 37° C. Thereafter, U46619 was added thereto for inducing platelet aggregation. The platelet aggregation was measured in accordance with a Born's method ("Nature", vol 194, page 927 (1962)), and inhibition against the platelet aggregation was examined. The platelet aggregation inhibitory action of the test compounds was expressed as the IC50 value (concentration required for inhibiting the platelet aggregation induced by 1 μM of U46619 by 50%).

[2] = test system: U46619 induced contraction in rat aorta; experiment: Inhibitory effect on U46619 induced contraction in rat aorta; assay type: cell-based, SD male rat; details: relaxation of contraction by 10^-7 M U46619, rat thoracic aorta, 37° C., logit method
Procedure: Inhibitory effect on U46619 induced contraction in rat aorta:
The sample was kept at 37° C., bubbled with 95% oxygen gas containing 5% CO2, and suspended in a 10 ml organ bath filled with a Krebs-Henseleit solution at 2 g resting tension. 10^-7 M of U46619 which is a stable active substance of TXA2 was added portionwise. After the contraction responses were stabilized, the test compound was added to the organ bath, and its antagonism was evaluated. A concentration-relaxation curve was obtained, to which was applied a logit method to obtain pIC50 values.

Row | IC50 [1] | IC50 [2] | Compound
1 | 2530 nM | 427 nM | O=C(O)COc1ccc(CCNS(=O)(=O)c2ccccc2)cc1 [Control compound, 4-(2-phenylsulfonylaminoethyl)phenoxy acetic acid, reference compound]
2 | 850 nM | – | O=C(O)c1ccc2c(c1)CC(CNS(=O)(=O)c1ccc(Cl)cc1)C2 (stereo not shown) [Example 33, [2-[(4-chlorophenyl)sulfonylaminomethyl]-indan-5-yl]carboxylic acid]
3 | 1120 nM | – | O=C(O)CCC(=O)c1ccc2c(c1)CC(CNS(=O)(=O)c1ccc(Cl)cc1)C2 (stereo not shown) [Example 40]
4 | 720 nM | 12.9 nM | O=C(O)Cc1ccc2c(c1)CC(CNS(=O)(=O)c1ccccc1)C2 (stereo not shown) [Example 1, [2-(phenylsulfonylaminomethyl)indan-5-yl]acetic acid]
5 | 600 nM | – | O=C(O)c1ccc2c(c1)CC(CCNS(=O)(=O)c1ccc(Cl)cc1)C2 (stereo not shown) [Example 34, [2-[2-(4-chlorophenyl)sulfonylaminoethyl)indan-5-yl]-carboxylic acid]
6 | – | 31.6 nM | O=C(O)COc1ccc2c(c1)CC(CNS(=O)(=O)c1ccccc1)C2 (stereo not shown) [Example 29, 2-(phenylsulfonylaminomethyl)indan-5-hydroxyacetic acid]
7 | 310 nM | – | O=C(O)COc1ccc2c(c1)CC(CNS(=O)(=O)c1ccc(Cl)cc1)C2 (stereo not shown) [Example 30, 2-[(4-chlorophenyl)sulfonylaminomethyl)indan-5-hydroxyacetic acid]
8 | 770 nM | 3.02 nM | O=C(O)Cc1ccc2c(c1)CC(CNS(=O)(=O)c1ccc(Cl)cc1)C2 (stereo not shown) [Example 24, [2-[(4-chlorophenyl)sulfonylaminomethyl)indan-5-yl]acetic acid]
9 | 2450 nM | 316 nM | O=C(O)Cc1ccc2c(c1)CC(CCNS(=O)(=O)c1ccccc1)C2 (stereo not shown) [Example 25, [2-(2-phenylsulfonylaminoethyl)indan-5-yl]acetic acid]
